Results taken from patent publication US5776948A, “Fluoroquinoline derivative” (Chugai Seiyaku Kabushiki Kaisha, priority 1992, dated 1998).
Values after ≈ are worked out from the molar mass of the structure shown. Where two headings read alike, the source gives them in different places.

Key:
X. maltophilia IFO 14161 = experiment: Antibacterial activity test, MIC by agar plate dilution method; format: cell-based; conditions: unit assumed
Procedure: (§1) The minimum inhibitory concentrations (MIC) of the test compounds were measured by the publicly known agar plate dilution method.

TO-101 = experiment: as above; format: cell-based; conditions: TO-101 (listed under S. marcescens); unit assumed
Procedure: as §1

M. morganii IFO 3848 = experiment: as above; format: cell-based; conditions: unit assumed
Procedure: as §1

P. mirabilis IFO 13300 = experiment: as above; format: cell-based; conditions: unit assumed
Procedure: as §1

[1] = tested on: A. calcoaceticus IFO 12552; experiment: as above; format: cell-based; conditions: unit assumed
Procedure: as §1

B. subtilis ATCC 6633 = experiment: as above; format: cell-based; conditions: unit assumed
Procedure: as §1

MRSA RN-10 = experiment: as above; format: cell-based; conditions: unit assumed
Procedure: as §1

K. pneumoniae B-54 = experiment: as above; format: cell-based; conditions: unit assumed
Procedure: as §1

A. faecalis IFO 13111 = experiment: as above; format: cell-based; conditions: unit assumed
Procedure: as §1

E. cloacae IFO 3320 = experiment: as above; format: cell-based; conditions: unit assumed
Procedure: as §1

P. rettgeri IFO 13501 = experiment: as above; format: cell-based; conditions: unit assumed
Procedure: as §1

S. marcescens IFO 12648 = experiment: as above; format: cell-based; conditions: unit assumed
Procedure: as §1

E. coli NIHJ JC-2 = experiment: as above; format: cell-based; conditions: unit assumed
Procedure: as §1

P. aeruginosa GNB-139 = experiment: as above; format: cell-based; conditions: unit assumed
Procedure: as §1

C. freundii IFO 12681 = experiment: as above; format: cell-based; conditions: unit assumed
Procedure: as §1

JU-5 = experiment: as above; format: cell-based; conditions: JU-5 (listed under S. aureus); unit assumed
Procedure: as §1

E. aeruginosa IFO 13534 = experiment: as above; format: cell-based; conditions: unit assumed
Procedure: as §1

S. typhimurium LT-2 = experiment: as above; format: cell-based; conditions: unit assumed
Procedure: as §1

B. cereus IFO 13494 = experiment: as above; format: cell-based; conditions: unit assumed
Procedure: as §1

S. epidermidis IFO 12993 = experiment: as above; format: cell-based; conditions: unit assumed
Procedure: as §1

P. vulgaris IFO 3851 = experiment: as above; format: cell-based; conditions: unit assumed
Procedure: as §1

CSJ 1922 = experiment: as above; format: cell-based; conditions: CSJ 1922 (listed under E. coli); unit assumed
Procedure: as §1

S. aureus 209P = experiment: as above; format: cell-based; conditions: unit assumed
Procedure: as §1

[2] = tested on: mouse lymphatic leukemia cell line L1210; experiment: Cytotoxicity test (MTT method); format: cell-based
Procedure: The 50% inhibitory concentrations (IC50) of the test compounds on a mouse lymphatic leukemia cell line L1210 were determined by the MTT [3-(4,5-dimethylthiazol-2-yl)-2,5-diphenyltetrazolium bromide] method.
Namely, 2×10^4 L1210 cells were incubated in 200 μl of a culture medium (RPMI-1640 medium containing 10% of fetal bovine serum) containing a two-fold serial dilution of a test compound at 37° C. for a day. Four hours before the completion of the incubation, 10 μl of a 5 mg/ml solution of MTT was added. When the incubation was completed, the culture medium was eliminated by sucking and the insoluble formazan, which had been reduced by the mitochondrial dehydrogenase of the cells, was extracted with 100 μl of dimethylsulfoxide. Then the absorbance was measured at 550 nm. The cell propagation ratio was expressed in the ratio of the formazan formation of the test lot to that of the control lot wherein cells were incubated in a medium free from any test compound. Then IC50 was determined by the probit method.

[3] = Phototoxicity test (UVA irradiation, MTT method); format: cell-based; design: dose or concentration left out as unconfirmed; conditions: mouse, l1210 cells; L1210, UVA 0.5 J, 2 days incubation; read-out: Phototoxicity (%; propagation ratio under 0.5 J-irradiation to non-irradiation lot)
Procedure: The phototoxicity was determined by enhancing the cytotoxicity of a test compound on L1210 via UV irradiation. […] After the irradiation, 100 μl of a culture medium was added and the cells were incubated at 37° C. for 2 days.

[4] = background art; cited from earlier work
[5] = L1210 cells, 37° C., a day, MTT, read-out: IC50

SMILES	MIC (X. maltophilia IFO 14161) [µg/mL]	MIC (TO-101) [µg/mL]	MIC (M. morganii IFO 3848) [µg/mL]	MIC (P. mirabilis IFO 13300) [µg/mL]	MIC [1] [µg/mL]	MIC (B. subtilis ATCC 6633) [µg/mL]	MIC (MRSA RN-10) [µg/mL]	MIC (K. pneumoniae B-54) [µg/mL]	MIC (A. faecalis IFO 13111) [µg/mL]	MIC (E. cloacae IFO 3320) [µg/mL]	MIC (P. rettgeri IFO 13501) [µg/mL]	MIC (S. marcescens IFO 12648) [µg/mL]	MIC (E. coli NIHJ JC-2) [µg/mL]	MIC (P. aeruginosa GNB-139) [µg/mL]	MIC (C. freundii IFO 12681) [µg/mL]	MIC (JU-5) [µg/mL]	MIC (E. aeruginosa IFO 13534) [µg/mL]	MIC (S. typhimurium LT-2) [µg/mL]	MIC (B. cereus IFO 13494) [µg/mL]	IC50 [2, 5] [µg/mL]	further results
COc1c(C2(N)CCCC2)c(F)cc2c(=O)c(C(=O)O)cn(C3CC3)c12.Cl [Ex. 16, 7-(1-aminocyclopentyl)-1-cyclopropyl-6-fluoro-8-methoxy-1,4-dihydro-4-oxo-3-quinolinecarboxylic acid hydrochloride]	0.78	0.39	0.2	0.2	0.78	0.1	1.56	0.2	1.56	0.1	0.2	0.39	0.39	3.13	0.2	0.39	0.39	0.39	0.78	399	MIC (S. epidermidis IFO 12993): 3.13 µg/mL; MIC (P. vulgaris IFO 3851): 0.2 µg/mL; MIC (CSJ 1922): 0.2 µg/mL; MIC (S. aureus 209P): 1.56 µg/mL
COc1c(C2(N)CC2)c(F)cc2c(=O)c(C(=O)O)cn(C3CC3)c12.Cl [Ex. 26, 7-(1-aminocyclopropyl)-1-cyclopropyl-6-fluoro-8-methoxy-1,4-dihydro-4-oxo-3-quinolinecarboxylic acid hydrochloride]	0.78	0.2	0.05	0.05	0.78	0.05	0.39	0.1	1.56	0.025	0.2	0.2	0.2	0.78	0.1	0.2	0.2	0.2	0.2	323	viability at 48 h [3]: > 100%; MIC (S. epidermidis IFO 12993): 0.78 µg/mL; MIC (P. vulgaris IFO 3851): 0.1 µg/mL; MIC (CSJ 1922): 0.1 µg/mL; MIC (S. aureus 209P): 0.39 µg/mL
COc1c(C2(N)CCC2)c(F)cc2c(=O)c(C(=O)O)cn(C3CC3)c12.Cl [Ex. 23, 7-(1-aminocyclobutyl)-1-cyclopropyl-6-fluoro-8-methoxy-1,4-dihydro-4-oxo-3-quinolinecarboxylic acid hydrochloride]	0.78	0.39	0.1	0.39	1.56	0.1	0.78	0.2	1.56	0.1	0.39	0.78	0.2	3.13	0.2	0.39	0.39	0.39	0.78		MIC (S. epidermidis IFO 12993): 1.56 µg/mL; MIC (P. vulgaris IFO 3851): 0.2 µg/mL; MIC (CSJ 1922): 0.2 µg/mL; MIC (S. aureus 209P): 0.78 µg/mL
COc1c(C2(N)CCOCC2)c(F)cc2c(=O)c(C(=O)O)cn(C3CC3)c12.Cl [Ex. 18, 7-(4-amino-2,3,5,6-tetrahydropyran-4-yl)-1-cyclopropyl-6-fluoro-8-methoxy-1,4-dihydro-4-oxo-3-quinolinecarboxylic acid hydrochloride]																				> 800	
COc1c(C2(N)CCCCC2)c(F)cc2c(=O)c(C(=O)O)cn(C3CC3)c12.Cl [Ex. 17, 7-(1-aminocyclohexyl)-1-cyclopropyl-6-fluoro-8-methoxy-1,4-dihydro-4-oxo-3-quinolinecarboxylic acid hydrochloride]																					IC50 ([2]; L1210): 399 µg/mL
CCn1cc(C(=O)O)c(=O)c2cc(F)c(N3CCNCC3)cc21 [norfloxacin]																					solubility under physiological conditions [4]: poor solubility
CCn1cc(C(=O)O)c(=O)c2cc(F)c(N3CCNCC3)nc21 [enoxacin]																					solubility under physiological conditions [4]: poor solubility
CC1COc2c(N3CCN(C)CC3)c(F)cc3c(=O)c(C(=O)O)cn1c23 (stereo not shown) [Ofloxacin, reference compound]																				195 (≈ 540 µM)	viability at 48 h [3]: 69%
O=C(O)c1cn(C2CC2)c2cc(N3CCNCC3)c(F)cc2c1=O [Ciprofloxacin, reference compound]																				77 (≈ 232 µM)	
